The data set in a line: differential scanning calorimetry (DSC) of amorphous sirolimus. The class given is physicochemical. The note with it: DSC curve for this sample (FIG. 6); about 3 mg, heating rate 2° C./min, -40 to 200° C., nitrogen flow. As for the experimental part: In another test, the amorphous sirolimus is analyzed utilizing differential scanning calorimetry (DSC). Essentially, the purpose of this test is to determine the glass transition temperature of the amorphous sirolimus. In this test, approximately 3 mg of amorphous sirolimus is transferred into a standard aluminum TA-Instrument sample pan and covered. The DSC curve is recorded on a TA-Instruments Q1000 MTDSC equipped with a RCS cooling unit. FIG. 6 illustrates a differential scanning calorimetry (DSC) curve of amorphous sirolimus. […] Based on a number of scans, the glass transition temperatures may be in the range from about 92 degrees C. to about 95 degrees C.
(In general: In DSC, transitions show as peaks or steps in heat flow.)

On to `CO[C@H]1C[C@@H]2CC[C@@H](C)[C@@](O)(O2)C(=O)C(=O)N2CCCC[C@H]2C(=O)O[C@H]([C@H](C)C[C@@H]2CC[C@@H](O)[C@H](OC)C2)CC(=O)[C@H](C)/C=C(\C)[C@@H](O)[C@@H](OC)C(=O)[C@H](C)C[C@H](C)/C=C/C=C/C=C/1C` [amorphous sirolimus, sirolimus (rapamycin)], for which the glass transition temperature result was “about 93 degrees C”.

(Values after patent US7393952B2, “Solvent free amorphous rapamycin” (Cordis Corporation, priority 2004, dated 2008).)
